# In patent US10449177B2, “Methods of treating mild cognitive impairment (MCI) and related disorders” (Buck Institute for Research on Aging, priority 2010, dated 2019):
# Experiments:
# [1] = tested on: 7 W cells stably transfected with APP; assay: […] sAPPα assay in 7 W APP transfected cells; assay type: cell-based; conditions: 7 W CHO cells, 1 μM compound, 24 h
# Description: In vitro compound testing assay: 7 W CHO cells were seeded at 50,000 cells/well in a 96 wells plate for 24 h. Then their medium was changed for fresh medium supplemented with 1 μM compounds (e.g., tropisetron, disulfuram, honokiol, and/or nimetazepam). After 24 h, 20 μl of the medium was added to 2 μl of the complete protease inhibitor with 1 μM EDTA and kept at 4° C. until analysis. 2 μl of that medium was treated with the Perkin Elmer (PE) […]® Aβ kit to determine the amount of Aβ42 secreted by the cells in 24 h using the PE-Enspire reader. Another aliquot of 2 μl of the medium was diluted with 50 μl of the PE […]® buffer and was treated with the PE […]® sAPPα kit to determine the amount of sAPPα secreted by the cells in 24 h. For the assay, 2 μl of the final mixture was treated with the acceptor bead and the donor antibody followed by addition of the donor beads and the […]® signal was measured using a PE-Enspire reader. For measurement of APPneo, the 50,000 cells were treated after seeding with fresh medium supplemented with or without the compound, but without fetal bovine serum (FBS), in order to induce the formation of the APPneo fragment. […]
# MBP-eAPP230-624 = biological target: T1, MBP-eAPP230-624 (Homo sapiens, UniProt P05067); assay: Small-angle X-ray scattering of MBP-eAPP230-624 incubated with compound; assay type: binding; conditions: for Dmax (Å) ± 10 / MWcalc/MWseq ± 0.2 / Rg (Å) ± 2 / binding to MBP-eAPP230-624 / APP and effect on conformation or dimerization: 50 μM compound; for Dmax (Å) ± 10 / MWcalc/MWseq ± 0.2 / Rg (Å) ± 2: MBP-eAPP230-624, 4° C., 1 hour; for binding to MBP-eAPP230-624 / APP and effect on conformation or dimerization: small-angle X-ray scattering
# T1 construct: 100 μg of purified MBP-eAPP230-624 were incubated with 50 μM Disulfuram
# Description: X-ray scattering data collection: To 100 μg of purified MBP-eAPP230-624 were incubated with 50 μM Disulfuram or 50 μM Sulfiram in 20 mM sodium phosphate pH 7.4, 137 mM sodium chloride, 0.05% dimethyl sulfoxide at 4° C. for 1 hour. The control sample was incubated in the buffer alone. The samples were then concentrated to approximately 1.5 mg/ml using […] NML concentrators. Small-angle X-ray scattering data were collected using protein concentrations in the range of 0.25-1.5 mg/ml and an X-ray wavelength of 1.11 Å at beam line 12.3.1 (Advanced Light Source). Samples of the filtrate were used for buffer subtraction. Data were integrated with software customized for the beam line and processed with the program PRIMUS (Konarev (2003) Journal of Applied Crystallography 36, 1277-1282). The program GNOM (Svergun, (1992) J. Appl. Crystallogr. 25, 495-503) was used to calculate the maximum dimension and the radius of gyration and to estimate the intensity of the scattering at zero angle for higher concentration samples. The molecule weight of each protein was calculated by comparing to the scattering of proteins of known molecule weight.
# [2] = Degradation in brain tissue; assay type: in vitro ADME
# APP = assay: sAPPα, Aβ40 and Aβ42 levels in brain (PD) of APP transgenic (PDAPP) mice; assay type: in vivo; conditions: Tg mice; for sAPPα levels in hippocampus (Hip) and entorhinal cortex (ECx) / Aβ40 levels / Aβ42 levels: 10 mpk sc, 5 days
# Description: […] Analysis: […]® kits from Perkin Elmer (PE) were used to quantify sAPPα (cat#: AL254C), sAPPβ (cat#: AL232C), Aβ40 (cat #: AL275C), Aβ42 (cat#: AL276C) and Tau (cat#: AL271C) from brain homogenates. The samples are added to an AlphaPlate-384 (cat#: 6005350). Twenty microliters (μl) of acceptor bead antibody mix was added to each five μl cerebrospinal fluid (CSF) sample and allowed to incubate for one hour at room temperature. Next, 25 μl of donor beads were added and allowed to incubate in the dark for 30 minutes at room temperature. Fluorescence was then measured on an EnsPire 96-well plate reader (Perkin-Elmer).
# ELISA assays: ELISA kits from Invitrogen were also used to quantify Aβ1-40 (KHB3481) and Aβ1-42 (KHB3544) in duplicate from the CSF samples stored at −80° C. For assay, samples were thawed on ice and BSL-2 precautions practiced at all times. For the human Aβ 1-42 ultrasensitive ELISA, samples were diluted 1:2 (50 μl CSF plus 50 μl kit-provided standard diluent buffer). For the human Aβ1-40 ELISA, samples were diluted 1:15 (6.7 μl CSF plus […] of standard diluent buffer). Assays were performed according to manufacturer's instructions. In short, standards and samples were added to a plate pre-coated with a monoclonal capture antibody specific for the amino terminus of Hu Aβ. The samples were co-incubated with a rabbit detection antibody (Ab) specific for the carboxy terminus of the Aβ species being assayed for 3 hr at room temperature (Aβ 1-40) to overnight at 4° (Aβ 1-42) with gentle rocking After washing, bound rabbit Ab was detected using a horseradish peroxidase-labeled anti-rabbit secondary Ab. After washing again, bound HRP-anti rabbit Ab was detected colorimetrically (Spectramax 190, Molecular Devices) by the addition of a substrate solution. 1 mM 4-(2-Aminoethyl)benzenesulfonyl fluoride hydrochloride (AEBSF) protease inhibitor (101500, Calbiochem) was added to standards and samples.
# In case of tropisetron the testing was done at 0.3 mpk, while in case of the other compounds (e.g., nimetazepam, disulfuram and honokiol) it was done at 10 mpk. From the collected brains the hippocampi were dissected. Levels of sAPPα, and Aβ1-40, Aβ1-42 and APPneo were measured by […] assay ([…] Perkin-Elmer), and Aβ1-40, Aβ1-42 (Invitrogen, sensitive ELISA kit) in brain homogenates of Tg mice. All procedures involved have been described (Galavan 2006, Proc Natl Acad Sci USA, 103, 7130-7135). […] The brain-to-plasma ratio (PK) of tropisetron and sAPPalpha/Aβ42 ratios (PD) were then determined.
# [3] = Brain uptake testing (PK): plasma and brain levels by LC/MS/MS; design: species or system mice; conditions: mouse, in vivo, sc
# Description: Brain uptake testing (PK): In general, CNS exposure studies consisted of collection of heparinized plasma and brains after treatment with tropisetron, nimetazepam, disulfuram and honokiol following subcutaneous (sc) administration of the molecules at 10 mg/kg. Plasma and brain levels of the compounds were determined by quantitative LC/MS/MS methodology, conducted at Integrated Analytical Solutions (on the internet at ianalytical.net). Plasma samples were precipitated with acetonitrile:methanol (1:1) cocktail containing an internal standard. The brain samples were homogenized directly in ethylacetate or extracted from 5M guanidine homogenates using the liquid-liquid method. The resulting supernatant were evaporated to dryness and subjected to the LC/MS/MS analysis. For each compound 3 mice were used for analysis. The brain-to-plasma ratios and brain levels were then be calculated to identify the best candidate(s) for further testing.
# [4] = stated as known for the benzodiazepine; cited from earlier work
# T1 sequence (P05067 230-624 isoform P05067-4): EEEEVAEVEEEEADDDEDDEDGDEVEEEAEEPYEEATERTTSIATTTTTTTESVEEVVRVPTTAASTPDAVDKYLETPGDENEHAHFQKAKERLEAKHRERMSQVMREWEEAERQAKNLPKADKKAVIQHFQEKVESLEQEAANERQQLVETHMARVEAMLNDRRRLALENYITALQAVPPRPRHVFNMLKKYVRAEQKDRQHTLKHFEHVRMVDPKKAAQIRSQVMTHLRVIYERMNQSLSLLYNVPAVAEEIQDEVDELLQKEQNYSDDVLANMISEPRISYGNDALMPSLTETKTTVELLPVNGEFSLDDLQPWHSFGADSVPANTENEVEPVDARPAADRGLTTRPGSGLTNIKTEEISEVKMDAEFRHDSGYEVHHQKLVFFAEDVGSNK
SMILES,sAPPα levels secreted by cells [1],Dmax (Å) ± 10 (MBP-eAPP230-624) [Å],MWcalc/MWseq ± 0.2 (MBP-eAPP230-624),Rg (Å) ± 2 (MBP-eAPP230-624) [Å],binding affinity relative to sulfuram (MBP-eAPP230-624; inferred from greater effect in X-ray scattering),binding to MBP-eAPP230-624 / APP and effect on conformation or dimerization (MBP-eAPP230-624; listed as Disulfuram),binding to MBP-eAPP230-624 / APP and effect on conformation or dimerization (MBP-eAPP230-624; listed as disulfuram),stability in brain tissue [2],Aβ levels (APP; 10 mpk),sAPPα levels in hippocampus (Hip) and entorhinal cortex (ECx) (APP),blood-brain-barrier / brain penetration [3],blood-brain-barrier penetration (known) [4],Aβ40 levels (APP),Aβ42 levels (APP),sAPPα levels in hippocampus (Hip) and entorhinal cortex (ECx) (APP; 10 mg/kg),"sAPPα levels in hippocampus (Hip) and entorhinal cortex (ECx) (APP; listed as nimetazepam, 10 mg/kg)",binding to MBP-eAPP230-624 / APP and effect on conformation or dimerization (MBP-eAPP230-624)
"CCN(CC)C(=S)SSC(=S)N(CC)CC [Disulfiram, 1,1′,1″,1′″-[disulfanediylbis(carbonothioylnitrilo)]tetraethane]",increase,160,1.5,51,higher binding affinity,can bind to APP and disrupt APP dimerization,bind to MBP-eAPP230-624 and alter the conformation of the protein,degrades rapidly in brain tissue,no changes,no changes,low blood-brain-barrier penetration,,,,,,
"CN1C(=O)CN=C(c2ccccc2)c2cc([N+](=O)[O-])ccc21 [Nimetazepam, 2-methyl-9-nitro-6-phenyl-2,5-diazabicyclo[5.4.0] undeca-5,8,10,12-tetraen-3-one]",,,,,,,,,,,,cross the blood-brain-barrier well,No significant changes,No significant changes,significant increase,increase,
"C=CCc1ccc(O)c(-c2ccc(O)c(CC=C)c2)c1 [honokiol, 2-(4-hydroxy-3-prop-2-enyl-phenyl)-4-prop-2-enyl-phenol]",,,,,,,,,,no significant increase,penetrates the brain well,,No significant changes,No significant changes,,,
CCN(CC)C(=S)SC(=S)N(CC)CC [Sulfiram],,170,1.7,53,,,,,,,,,,,,,bind to MBP-eAPP230-624 and alter the conformation of the protein
